The test relates to HSV-2 (CEU-G). The experiment in a line: Antiherpes activity, HSV-2 (CEU-G) (Example 10). The conditions noted are these: Human alphaherpesvirus 2, read-out: plaque-forming units as % of control. Type of test: cell-based. How it is done: IPdR and 5-bromo-2-pyrimidinone-2-deoxyribonucleoside (BrPdR) were tested for antiherpes activity according to procedures described by Cheng, Y.-C., et al. Antimicrob. Agents Chemother (1976) 10, 119.

Experimental findings from patent US4895937A, “5-ioso-2-pyrimidinone nucleoside” (The Research Foundation of State University of New York, priority 1988, dated 1990) are described below.

Take `O=c1ncc(I)cn1[C@H]1C[C@H](O)[C@@H](CO)O1` [IPdR, 1-(2-Deoxy-β-D-Ribofuranosyl)-5-iodo-2-pyrimidinone]: the activity at 100 µM worked out at 9.3%.
